Measurements from BigSolDB 2.1.

O=c1cc(CBr)c2ccccc2[nH]1
solubility (mole fraction)
Details | 273.15 K | 278.15 K | 283.15 K | 288.15 K | 293.15 K | 298.15 K | 303.15 K | 308.15 K | 313.15 K
in 1,4-dioxane | – | – | – | 0.000504 | 0.000625 | 0.000767 | 0.00092 | 0.00111 | 0.00137
in 2-butanone | 0.000321 | 0.000365 | 0.000408 | 0.000455 | 0.000511 | 0.00057 | 0.000634 | 0.00071 | 0.000792
in DMF | 0.00214 | 0.00272 | 0.00329 | 0.00399 | 0.00464 | 0.00542 | 0.00634 | 0.00729 | 0.00828
in DMSO | – | – | – | – | 0.0141 | 0.0185 | 0.0232 | 0.0284 | 0.0338
in NMP | 0.0044 | 0.00524 | 0.0062 | 0.00719 | 0.00827 | 0.00939 | 0.0108 | 0.0125 | 0.0143
in acetonitrile | 8e-05 | 9e-05 | 0.000104 | 0.000118 | 0.000134 | 0.00015 | 0.000171 | 0.000196 | 0.000223
in ethanol | 0.000173 | 0.000188 | 0.000206 | 0.000227 | 0.000247 | 0.000271 | 0.000301 | 0.000338 | 0.000385
in isopropanol | 0.000136 | 0.000154 | 0.000177 | 0.0002 | 0.000224 | 0.000248 | 0.000279 | 0.000316 | 0.00036
in methanol | 0.000113 | 0.000129 | 0.000146 | 0.000165 | 0.000186 | 0.000207 | 0.000234 | 0.000265 | 0.000303
in n-butanol | 0.00029 | 0.000311 | 0.000333 | 0.000361 | 0.000391 | 0.000425 | 0.000461 | 0.000508 | 0.000558
in n-propanol | 0.000224 | 0.00024 | 0.000262 | 0.000283 | 0.000309 | 0.000341 | 0.000379 | 0.000425 | 0.000476
in toluene | 1.5e-05 | 1.9e-05 | 2.3e-05 | 2.8e-05 | 3.2e-05 | 3.8e-05 | 4.3e-05 | 4.9e-05 | 5.6e-05
